The test system of experiment [1] is HCT116 PTEN deleted cells (#22 and #35). The experiment can be described thus: Colony forming assay under PNKP inhibition. In kind it is cell-based. As to conditions: PTEN deleted HCT116, increasing concentrations. On the procedure:
(§1) The effect of survival of simultaneous disruption of two proteins was conducted using the clonogenic survival assay. To allow cells time to adhere to the plates, cells were seeded 24 h in advance. Cells were treated with the PNKP inhibitor A12B4C3 for 9-14 consecutive days in triplicate at 0 μM, 0.1 μM, 1 μM, and 10 μM final concentration where 100 cells were plated for the 0 μM, 0.1 μM and 1 μM concentration groups and 300 cells in the 10 μM concentration group. Colonies were then stained with a crystal violet containing 20% methanol for one hour after which the plates were washed in warm water and left to dry overnight. Colonies of 50+ cells were then counted using an automated colony counter (Oxford Optronix, Oxford, UK).

Experiment [2] has as its system HCT116 PTEN wildtype cells (HCT116 parental and Neo124 vector only). The experiment can be described thus: Colony forming assay under PNKP inhibition. Format: cell-based. The following applies: PTEN proficient HCT116, increasing concentrations. On the procedure:
as §1

Another experiment has as its system HCT116 cells. The experiment can be described thus: Colony-forming assay with γ-radiation (synthetic sickness). Format: cell-based. Here is the method: as §1
For the indicated colony-forming assays, cells were treated with 0, 1, 2, 4, 6, or 8 Gy of γ-radiation (^60Co Gammacell; Atomic Energy of Canada Limited, Ottawa, Canada).
These HCT116 cells were then subjected to additional testing to determine if disruption of PNKP in PTEN negative cells would hypersensitize these cells to ionizing radiation. These assays to determine ‘synthetic sickness’ were done using […] A12B4C3, which was added to the cells 24 h before irradiation in a colony-forming assay. After one day the cells were subjected to 0, 1, 2, 4, 6, or 8 Gy of γ-radiation. […]

In experiment [3] the test system is PC3 cell lines lacking functional PTEN (p.R55fs*1, WT RAD51, p.BABE.puro, p.C124S, PC3 parental). The experiment can be described thus: Survival of PC3 cells in response to PNKP inhibition. Format: cell-based. As to conditions: doses ≥10 μM, 12-16 days. On the procedure: as §1
(§2) To investigate the feasibility of taking advantage of the newly identified partnership between PTEN and PNKP, we subjected the prostate cancer cell line, PC3 (naturally PTEN^−/−) to an increasing concentration of the PNKP inhibitor A12B4C3 (3) over a period of 12-16 days.

The subject of experiment [4] is PC3 cells reconstituted with WT PTEN or p.K289E. The experiment is described as above. Format: cell-based. The following applies: WT PTEN and p.K289E reconstituted PC3, 12-16 days. Here is the method: as §1, §2
The subject of experiment [5] is Karpas 299 cells (naturally SHP-1−/−). The experiment can be described thus: Cell proliferation assay with ALCL cell lines (Alamar Blue), PNKP inhibition. As to conditions: Karpas 299 (SHP-1−/−), approximately 10 μM, 12-16 days. Format: cell-based. On the procedure: (§3) Karpas 299 or SUPM2 cells were plated in 96-well format at a concentration of 5,000 cells/100 μL in complete RPMI. Increasing concentrations of the PNKP inhibitor A12B4C3 was added to each well at a constant concentration of DMSO and left to incubate for 12-16 days. 11 μL of 440 μM Alamar Blue was then loaded onto the plates and left to incubate for 24-48 hours after which fluorescence was determined as described above.

Experiment [6] relates to SUPM2 cells (naturally SHP-1+/+). Described as above. Format: cell-based. As to conditions: SUPM2 (SHP-1+/+), approximately 10 μM, 12-16 days. Here is the method: as §3
Experiment [7] has as its system A549(Scramble) and A549δPNKP cells. The experiment can be described thus: Mode of cell death determination (Hoescht 33342, Ethidium Homodimer III, Annexin V-FITC triple stain). The following applies: 100 μM, 24 to 72 hours. Format: cell-based, human. On the procedure: A549(Scramble) or A549δPNKP cells were grown on coverslips in complete DMEM/F12 and were either transfected with ASN or SHP-1. Another control subjected these cell lines to 100 μM 5-(p-Bromobenzylidine)-α-isopropyl-4-oxo-2-thioxo-3-thiozolidineacetic acid (BH3I-1, Sigma-Aldrich, Oakville, ON), which is a known apoptosis inducer. The cells were grown under each condition for the indicated length of time before being subjected to a triple stain of Hoescht 33342, Ethidium Homodimer III and Annexin V-FITC (Biotium, Hayward, Calif.). Hoescht 33342 is an uncharged DNA stain that will stain the nuclei of healthy and non-healthy cells alike, however, Ethidium Homodimer III is a highly positively charged DNA stain that cannot readily enter cells unless there is a loss of membrane integrity. […]
To identify the mechanism in which cells undergo synthetic lethality upon simultaneous disruption of SHP-1 and PNKP, A549(Scramble) and A549δPNKP cells were grown on coverslips and transiently transfected with ASN or SHP-1 siRNA (FIGS. 21A and 21C, respectively). […] Cells were then simultaneously stained with Hoescht 33342, EthidiumHomodimer III and Annexin V-FITC, which fluoresce at different wavelengths (absorbance/emission; 350/461 nm, 528/617 nm, and 492/514 nm, respectively). […]

Structures are written as SMILES. “Also recorded” adds a separate entry of the source.

With `CCCCCCCCCCC(O)C1C=CC2C(=O)N(c3ccccc3)C(=O)C2N1Nc1ccc([N+](=O)[O-])cc1` (stereo not drawn) [A12B4C3, 2-(1-hydroxyundecyl)-1-(4-nitrophenylamino)-6-phenyl-6,7a-dihydro-1H-pyrrolo[3,4-b]pyridine-5,7(2H,4aH)-dione], the “survival under PNKP inhibition” value is listed as “sensitive to PNKP disruption” in experiment [1] and “no effect” in experiment [2]. In addition, the “sensitivity to ionizing radiation” value with HCT116 cells (PNKP independently disrupted (PTEN proficient HCT116), 2 M A12B4C3 added 24 h before 0-8 Gy γ-radiation) is on record as “increase in sensitivity to ionizing radiation”; in the experiment with HCT116 cells (PTEN negative HCT116, 2 M A12B4C3 added 24 h before 0-8 Gy γ-radiation) it was “increase in the sensitivity to ionizing radiation”. Moreover, the survival result is listed as “marked decrease in survival” in experiment [3], “lethality under PNKP inhibition was rescued” in experiment [4], “marked decrease in survival” in experiment [5] and “remain viable” in experiment [6].

With `CC(C)C(C(=O)O)N1C(=O)C(=Cc2ccc(Br)cc2)SC1=S` (stereo not drawn) [BH3I-1, 5-(p-Bromobenzylidine)-α-isopropyl-4-oxo-2-thioxo-3-thiozolidineacetic acid], the apoptotic cells entry in experiment [7] was “substantial increase in the occurrence of apoptotic cells; also recorded: increase in apoptotic cells beginning at 24 hours and continuing on through 72 hours”.
